From article PMC10608021, “Angiotensin-I-Converting Enzyme (ACE)-Inhibitory Peptides from the Collagens of Monkfish (Lophius litulon) Swim Bladders: Isolation, Characterization, Molecular Docking Analysis and Activity Evaluation” (Marine Drugs, 2023)
Like-named read-outs stand apart in the source and are kept apart here.

Key:
[1] = tested on: HUVECs, endothelin-1 (ET-1) level; assay: ET-1 production in HUVECs (assay kit); type: cell-based, Human; conditions: for ET-1 content in NE-treated HUVECs: peptide 300 μM + NE (0.5 μM), NE alone 69.58 ± 3.11 pg/mL; for ET-1 content in HUVECs, result in words: peptide at 100–300 μM
Description: (§1) HUVECs were cultured in DMEM at 37 °C in a humidified 5% CO2 atmosphere, and the DMEM contained penicillin (100 U/mL), FBS (10%, v/v) and streptomycin ([…]). After 24 h, the cells were used for follow-up experiments.
(§2) After treatment with ACEi peptides (MHP6, MHP7 and MHP9, respectively) for 24 h, the NO and ET-1 content in the HUVECs was separately determined according to their assay kits as per manufacturers’ protocol.

[2] = tested on: HUVECs, nitric oxide (NO) level; assay: NO production in HUVECs (assay kit); type: cell-based, Human; conditions: for NO level in HUVECs / NO production level in HUVECs: control 35.01 ± 1.38 µM; for NO level in HUVECs / NO content in NE-treated HUVECs / NO production level in HUVECs: mean ± SD, n = 3; for NO content in NE-treated HUVECs: peptide 300 μM + NE, NE alone 21.34 ± 1.24 µM; for NO production level in HUVECs: peptide 300 μM, 24 h, without NE; for NO content in HUVECs, result in words: treatment with peptide
Description: as §1, §2

HUVECs [3] = assay: Viability of HUVECs (MTT); type: cell-based, Human; conditions: for Cell viability of HUVECs: 400 µM; for Viability of HUVECs, result in words: 400 μM, 24 h, versus control and other concentration groups, p < 0.05
Description: as §1
The MTT method was employed to detect the viability of HUVECs incubated with MHP6, MHP7 and MHP9 [38]. In brief, HUVECs were seeded in 96-well plates and cultured for 24 h. Subsequently, HUVECs were separately treated with MHP6, MHP7 and MHP9 (100, 200, 300 or 400 μM) at 37 °C. After 24 h, MTT was added into the cell culture to reach a final concentration of 2 mg/mL. After 4 h, DMSO was added into each well and the absorbance at 490 nm was determined. Cell viability was calculated according to the following formula:Cell viability (%) = (Asample/Acontrol) × 100(2)

ACE [4] = molecular target: T1, ACE (Homo sapiens, UniProt P12821); assay: ACEi activity (FAPGG substrate); type: biochemical; conditions: 1.5 mg/mL; FAPGG (3 mM) substrate, ACE 1.25 mU, 37 °C, 0.5 h incubation, HPLC at 228 nm; mean ± SD, n = 3
T1 sequence (P12821 30-1306, species assumed): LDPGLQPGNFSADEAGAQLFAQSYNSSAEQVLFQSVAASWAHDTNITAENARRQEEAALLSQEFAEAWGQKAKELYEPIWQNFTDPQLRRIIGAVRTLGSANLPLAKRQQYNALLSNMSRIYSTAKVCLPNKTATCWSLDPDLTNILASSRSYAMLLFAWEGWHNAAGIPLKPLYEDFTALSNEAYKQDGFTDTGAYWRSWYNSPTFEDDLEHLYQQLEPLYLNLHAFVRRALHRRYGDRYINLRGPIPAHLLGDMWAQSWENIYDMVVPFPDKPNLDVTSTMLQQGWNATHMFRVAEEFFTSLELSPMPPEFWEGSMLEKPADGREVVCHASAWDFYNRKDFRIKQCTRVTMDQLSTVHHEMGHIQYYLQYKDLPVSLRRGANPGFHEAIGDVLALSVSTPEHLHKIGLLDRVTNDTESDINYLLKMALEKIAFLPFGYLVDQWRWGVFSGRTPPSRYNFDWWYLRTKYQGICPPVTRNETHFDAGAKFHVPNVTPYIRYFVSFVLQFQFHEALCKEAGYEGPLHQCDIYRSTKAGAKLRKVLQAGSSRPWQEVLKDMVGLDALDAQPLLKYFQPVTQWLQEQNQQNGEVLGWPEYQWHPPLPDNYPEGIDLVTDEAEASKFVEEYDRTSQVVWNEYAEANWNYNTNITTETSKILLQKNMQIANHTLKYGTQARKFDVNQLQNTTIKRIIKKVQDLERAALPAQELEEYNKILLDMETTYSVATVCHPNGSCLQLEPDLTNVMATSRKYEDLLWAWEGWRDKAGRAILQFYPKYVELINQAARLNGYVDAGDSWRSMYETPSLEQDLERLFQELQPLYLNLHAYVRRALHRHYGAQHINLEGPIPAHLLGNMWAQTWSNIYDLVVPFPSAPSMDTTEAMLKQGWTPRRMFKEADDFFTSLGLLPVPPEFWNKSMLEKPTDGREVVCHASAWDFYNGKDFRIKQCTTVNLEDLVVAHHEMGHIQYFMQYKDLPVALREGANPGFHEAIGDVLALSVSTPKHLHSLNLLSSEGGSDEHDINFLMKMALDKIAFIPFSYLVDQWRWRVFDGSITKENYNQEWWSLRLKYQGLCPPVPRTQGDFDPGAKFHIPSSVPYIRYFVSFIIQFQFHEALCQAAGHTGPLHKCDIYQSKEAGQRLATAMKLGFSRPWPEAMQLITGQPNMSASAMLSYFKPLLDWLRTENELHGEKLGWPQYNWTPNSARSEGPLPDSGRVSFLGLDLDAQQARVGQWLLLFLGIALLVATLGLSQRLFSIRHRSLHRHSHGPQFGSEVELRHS
Description: The ACEi activity of PSC-MH, fractions and peptides (MHP1-MHP12) was determined by using FAPGG as a substrate. Briefly, the initial volume was made up of a 50 µL volume of FAPGG (3 mM), ACE (1.25 mU) and the sample solution, respectively. These solutions were first preheated at 37 °C for 0.5 h […], and mixed and incubated for an additional 0.5 h. After that, 150 µL of glacial acetic acid was added to the solution to inactivate ACE. After that, the content of hippuric acid (HA) in the reaction mixture produced from the substrate reactions catalyzed by ACE was determined using HPLC at 228 nm. In short, using an isocratic system (pH 3.0) made up of 12.5% (v/v) acetonitrile in deionized water, the amount of free HA was evaluated using an HPLC system (Agilent 1200, Agilent Ltd., Santa Clara, CA, USA) on a Zorbax SB C-18 column (4.6 × 250 mm, 5 µm). The sample (10 µL) was eluted at a flow rate of 1.0 mL/min, and the absorbance at 228 nm was monitored to obtain the measurement. A total of 50 µL of PBS buffer, used as the sample substitute, was added into the control reaction mixture. ACEi activity was calculated as follows: ACEi activity (%) = [(HA control − HA sample)/HA control] × 100%(1)

ACE [5] = molecular target: T1, ACE; conditions: cited from earlier work
Description: To illustrate the ACEi mechanism of MHP6, MHP7 and MHP9, a molecular docking assay was conducted (Figure 7), and the affinities of MHP6, MHP7 and MHP9 with ACE were −7.3, −10.9 and −9.4 kcal/mol, respectively, which were similar to those of ACEi peptides from miiuy croakers (IKSW: −9.3 kcal/mol), M. edulis (LSFR: −8.5 kcal/mol), rice bran (YSK: −7.9 kcal/mol), tuna milts (YEGDP: −8.8 kcal/mol) and soybean (LVLL: −8.6 kca ...

[6] = tested on: Nrf2 and heme oxygenase-1 (HO-1) proteins in HUVECs; conditions: oxidative damage, ref [73]; cited from earlier work
Text: (§3) In addition, ET-1 is a known vasoconstriction factor, similar to Ang II, that can result in endothelial dysfunction associated with high blood pressure and atherosclerosis.

HUVECs [7] = conditions: cited from earlier work; for NO and ET-1 production in HUVECs: ref [73]; for ET-1 secretion and NO generation in HUVECs: peptide from tuna roes, ref [31]
Text: as §3

[8] = peptide 300 μM, 24 h, without NE, control 54.87 ± 2.57 pg/mL, mean ± SD, n = 3

C[C@H](CS)C(=O)N1CCC[C@H]1C(=O)O [Cap, captopril, reference compound]
ET-1 level in HUVECs ([1]; Cap 1.0 μM, control 54.87 ± 2.57 pg/mL, mean ± SD, n = 3): 32.25 ± 1.26 pg/mL | NO level in HUVECs ([2]; Cap treatment): 56.18 ± 2.58 µM

NC[C@H](O)c1ccc(O)c(O)c1 [NE, norepinephrine, reference compound]
ET-1 content in HUVECs ([1]; NE 0.5 μM, control 54.87 ± 2.57 pg/mL, p < 0.001, mean ± SD, n = 3): 69.58 ± 3.11 pg/mL | NO level in HUVECs ([2]; NE treatment, p < 0.001): 21.34 ± 1.24 µM

H-FDGPY-OH [MHP7, Phe-Asp-Gly-Pro-Tyr]
ET-1 content in NE-treated HUVECs ([1]; p < 0.001, mean ± SD, n = 3): 61.23 ± 1.89 pg/mL | ET-1 content in HUVECs [1, 8]: 43.87 ± 1.73 pg/mL | ET-1 content in HUVECs, result in words ([1]; p < 0.001): significantly reduce the ET-1 content in HUVECs | Cell viability of HUVECs (HUVECs [3]): 90.39 ± 3.19% | Viability of HUVECs, result in words (HUVECs [3]): might lead to some adverse harm to the function of HUVECs | ACEi activity (ACE [4]): 84.99 ± 2.34% | NO content in NE-treated HUVECs ([2]; p < 0.001): 26.31 ± 1.22 µM | NO production level in HUVECs [2]: 48.91 ± 2.35 µM | NO content in HUVECs, result in words [2]: significantly increased

H-SEGPK-OH [MHP6, Ser-Glu-Gly-Pro-Lys]
ET-1 content in NE-treated HUVECs ([1]; p < 0.001, mean ± SD, n = 3): 57.62 ± 1.95 pg/mL | ET-1 content in HUVECs [1, 8]: 40.35 ± 1.96 pg/mL | ET-1 content in HUVECs, result in words ([1]; p < 0.001): significantly reduce the ET-1 content in HUVECs | Cell viability of HUVECs (HUVECs [3]): 91.27 ± 2.64% | Viability of HUVECs, result in words (HUVECs [3]): might lead to some adverse harm to the function of HUVECs | ACEi activity (ACE [4]): 86.34 ± 3.25% | NO content in NE-treated HUVECs ([2]; p < 0.001): 31.24 ± 1.29 µM | NO production level in HUVECs [2]: 51.68 ± 2.38 µM | NO content in HUVECs, result in words [2]: significantly increased

H-SPGPW-OH [MHP9, Ser-Pro-Gly-Pro-Trp]
ET-1 content in NE-treated HUVECs ([1]; p < 0.001, mean ± SD, n = 3): 58.44 ± 2.34 pg/mL | ET-1 content in HUVECs [1, 8]: 42.18 ± 2.09 pg/mL | ET-1 content in HUVECs, result in words ([1]; p < 0.001): significantly reduce the ET-1 content in HUVECs | Cell viability of HUVECs (HUVECs [3]): 91.76 ± 3.22% | Viability of HUVECs, result in words (HUVECs [3]): might lead to some adverse harm to the function of HUVECs | ACEi activity (ACE [4]): 85.39 ± 3.46% | NO content in NE-treated HUVECs ([2]; p < 0.001): 29.87 ± 1.34 µM | NO production level in HUVECs [2]: 49.83 ± 0.96 µM | NO content in HUVECs, result in words [2]: significantly increased

IKSW [ACEi peptide from miiuy croakers]
Affinity with ACE (ACE [5]; peptide from miiuy croakers, ref [31]): -9.3 kcal/mol

IVTNWDDMEK
Expression levels of Nrf2 and HO-1 proteins [6]: positively regulate the expression levels of Nrf2 and heme oxygenase-1 (HO-1) proteins | NO and ET-1 production in HUVECs (HUVECs [7]): regulate NO and ET-1 production in a concentration-dependent manner

LSFR
Affinity with ACE (ACE [5]; peptide from M. edulis, ref [30]): -8.5 kcal/mol

LVLL [ACEi peptide from soybean]
Affinity with ACE (ACE [5]; peptide from soybean, ref [72]): -8.6 kcal/mol

VGPAGPRG
Expression levels of Nrf2 and HO-1 proteins [6]: positively regulate the expression levels of Nrf2 and heme oxygenase-1 (HO-1) proteins | NO and ET-1 production in HUVECs (HUVECs [7]): regulate NO and ET-1 production in a concentration-dependent manner

WGESF [from tuna roes]
ET-1 secretion and NO generation in HUVECs (HUVECs [7]): significantly bring down ET-1 secretion and improve the NO generation in HUVECs

WSPGF [from tuna roes]
ET-1 secretion and NO generation in HUVECs (HUVECs [7]): significantly bring down ET-1 secretion and improve the NO generation in HUVECs

YEGDP
Affinity with ACE (ACE [5]; peptide from tuna milts, ref [32]): -8.8 kcal/mol
